Data as given in the NIST ThermoML archive (doi:10.1016/j.fluid.2006.07.005).
± gives the expanded uncertainty stated by the source.

Tests used:
[1] = DTA
[2] = Molar enthalpy of transition or fusion; conditions: DSC

Structure (SMILES) | Triple point temperature ([1]; Crystal 1) | Triple point temperature ([1]; Crystal 2) | Triple point temperature ([1]; Crystal 3) | Molar enthalpy of transition or fusion ([2]; Crystal 1) | Molar enthalpy of transition or fusion ([2]; Crystal 2) | Molar enthalpy of transition or fusion ([2]; Crystal 3) | Glass transition temperature ([1]; Glass)
CCCCCCOCn1cc[n+](COCCCCCC)c1.F[B-](F)(F)F | 309.5 ± 6.2 K | 243.6 ± 4.9 K | 142.6 ± 2.9 K | 3.06 ± 0.12 kcal/mol | 0.167 ± 0.0717 kcal/mol | 0.478 ± 0.0717 kcal/mol | 
CCCCCCOCn1cc[n+](COCCCCCC)c1.O=S(=O)([N-]S(=O)(=O)C(F)(F)F)C(F)(F)F | 273.8 ± 5.5 K |  |  | 3.82 ± 0.12 kcal/mol |  |  | -81.3 ± 3.9 °C
